Earlier results, collected in PubChem BioAssay AID1259409 (Chemical Carcinogenesis Research Information System (CCRIS), 2018).

Tested on: rodent chemically induced tumor inhibition, incidence and multiplicity
Assay: CCRIS tumor inhibitor studies
Settings: Carcinogen: PHENACETIN, 62-44-2, N-BUTYL-N-(4-HYDROXYBUTYL)NITROSAMINE, 3817-11-6, Carcinogen: PHENACETIN, 62-44-2, N-BUTYL-N-(4-HYDROXYBUTYL)NITROSAMINE, 3817-11-6, Dose [Inhibitor]: 0, Route [Inhibitor]: SUBCUTANEOUS, Species: MOUSE, Strain/Sex: NON/SHI/MALE, Promoter: NONE USED

CC[C@H](C)[C@@H](NC(=O)[C@@H](CCC(=O)O)NC(=O)[C@@H](CO)NC(=O)[C@@H](CO)NC(=O)[C@H](NC(=O)[C@@H](CC(=O)O)NC(=O)[C@H](NC(=O)[C@H](C)NC(=O)[C@H](C)NC(=O)[C@@H](CC(=O)O)NC(=O)[C@@H](CO)NC(=O)[C@H](N)CS)C(C)C)C(C)C)C(=O)N[C@@H](C(=O)N[C@@H](C(=O)N[C@H](CCCCN)C(=O)N[C@H](CC(=O)O)C(=O)N[C@H](CC(C)C)C(=O)N[C@H](CCCCN)C(=O)N[C@H](CCC(=O)O)C(=O)N[C@H](CCCCN)C(=O)N[C@H](CCCCN)C(=O)N[C@H](CCC(=O)O)C(=O)N[C@@H](C(=O)N[C@@H](C(=O)N[C@H](CCC(=O)O)C(=O)N[C@H](CCC(=O)O)C(=O)N[C@@H](C)C(=O)N[C@H](CCC(=O)O)C(=O)O)C(C)C)C(C)C)C(C)C)[C@H](C)O
tumour outcome (control, treated, inhibition, significance) (60 UG IN 0.1 ML SALINE 2/WK FOR 6 WK CONCURRENTLY WITH BBN TREATMENT (STUDY DURATION: 34 WK), Target Tissue: Type of Lesion: URINARY BLADDER: CARCINOMA, Dose [Carcinogen]: 2% PHENACETIN IN DIET FOR 12 WK FOLLOWED BY 0.05% BBN IN DRINKING WATER FOR 6 WK): 7/20 (35%), 5/19 (26%), 26%, not significant
tumour outcome (control, treated, inhibition, significance) (60 UG IN 0.1 ML SALINE 2/WK FOR 16 WK BEGINNING POST CARCINOGEN TREATMENT (STUDY DURATION: 30 WK), Target Tissue: Type of Lesion: RENAL PELVIS: CARCINOMA, Dose [Carcinogen]: 2% PHENACETIN IN DIET FOR 8 WK FOLLOWED BY 0.05% BBN IN DRINKING WATER FOR 6 WK): 2/11 (18%), 8/12 (67%), -272%, not significant
tumour outcome (control, treated, inhibition, significance) (60 UG IN 0.1 ML SALINE 2/WK FOR 16 WK BEGINNING POST CARCINOGEN TREATMENT (STUDY DURATION: 30 WK), Target Tissue: Type of Lesion: URINARY BLADDER: CARCINOMA, Dose [Carcinogen]: 2% PHENACETIN IN DIET FOR 8 WK FOLLOWED BY 0.05% BBN IN DRINKING WATER FOR 6 WK): 2/11 (18%), 3/12 (25%), -39%, not significant
tumour outcome (control, treated, inhibition, significance) (60 UG IN 0.1 ML SALINE 2/WK FOR 16 WK BEGINNING POST CARCINOGEN TREATMENT (STUDY DURATION: 34 WK), Target Tissue: Type of Lesion: RENAL PELVIS: CARCINOMA, Dose [Carcinogen]: 2% PHENACETIN IN DIET FOR 12 WK FOLLOWED BY 0.05% BBN IN DRINKING WATER FOR 6 WK): 9/20 (45%), 10/18 (56%), -24%, not significant
tumour outcome (control, treated, inhibition, significance) (60 UG IN 0.1 ML SALINE 2/WK FOR 16 WK BEGINNING POST CARCINOGEN TREATMENT (STUDY DURATION: 34 WK), Target Tissue: Type of Lesion: URINARY BLADDER: CARCINOMA, Dose [Carcinogen]: 2% PHENACETIN IN DIET FOR 12 WK FOLLOWED BY 0.05% BBN IN DRINKING WATER FOR 6 WK): 7/20 (35%), 4/18 (22%), 37%, not significant
tumour outcome (control, treated, inhibition, significance) (60 UG IN 0.1 ML SALINE 2/WK FOR 22 WK BEGINNING POST PHENACETIN TREATMENT (STUDY DURATION: 30 WK), Target Tissue: Type of Lesion: RENAL PELVIS: CARCINOMA, Dose [Carcinogen]: 2% PHENACETIN IN DIET FOR 8 WK FOLLOWED BY 0.05% BBN IN DRINKING WATER FOR 6 WK): 2/11 (18%), 2/12 (17%), 5%, not significant
tumour outcome (control, treated, inhibition, significance) (60 UG IN 0.1 ML SALINE 2/WK FOR 22 WK BEGINNING POST PHENACETIN TREATMENT (STUDY DURATION: 30 WK), Target Tissue: Type of Lesion: URINARY BLADDER: CARCINOMA, Dose [Carcinogen]: 2% PHENACETIN IN DIET FOR 8 WK FOLLOWED BY 0.05% BBN IN DRINKING WATER FOR 6 WK): 2/11 (18%), 1/12 (8%), 56%, not significant
tumour outcome (control, treated, inhibition, significance) (60 UG IN 0.1 ML SALINE 2/WK FOR 22 WK BEGINNING POST PHENACETIN TREATMENT (STUDY DURATION: 34 WK), Target Tissue: Type of Lesion: RENAL PELVIS: CARCINOMA, Dose [Carcinogen]: 2% PHENACETIN IN DIET FOR 12 WK FOLLOWED BY 0.05% BBN IN DRINKING WATER FOR 6 WK): 9/20 (45%), 13/19 (68%), -51%, not significant
tumour outcome (control, treated, inhibition, significance) (60 UG IN 0.1 ML SALINE 2/WK FOR 22 WK BEGINNING POST PHENACETIN TREATMENT (STUDY DURATION:34 WK), Target Tissue: Type of Lesion: URINARY BLADDER: CARCINOMA, Dose [Carcinogen]: 2% PHENACETIN IN DIET FOR 12 WK FOLLOWED BY 0.05% BBN IN DRINKING WATER FOR 6 WK): 7/20 (35%), 7/19 (37%), -6%, not significant
